Measurements: patent US20100303758A1, “Novel Glucocorticoid Receptor Agonists” (priority 2009, published 2010)
pEC50: −log10 of the molar value.

Assays:
[1] = biological target: T1, human GR (Homo sapiens, UniProt P04150); experiment: GR agonist potency, MMTV-luciferase reporter in SW1353 cells; type: cell-based; conditions: human chondrosarcoma cell-line SW1353 stably transfected with MMTV-luciferase reporter; approx. 18 hours; data as percentage of 1 μM dexamethasone positive control
T1 construct: SW1353 naturally expresses human GR; endogenous in cells; host or cells: human chondrosarcoma cell-line SW1353 stably transfected with an MMTV-luciferase reporter construct
T1 sequence (P04150 1-777): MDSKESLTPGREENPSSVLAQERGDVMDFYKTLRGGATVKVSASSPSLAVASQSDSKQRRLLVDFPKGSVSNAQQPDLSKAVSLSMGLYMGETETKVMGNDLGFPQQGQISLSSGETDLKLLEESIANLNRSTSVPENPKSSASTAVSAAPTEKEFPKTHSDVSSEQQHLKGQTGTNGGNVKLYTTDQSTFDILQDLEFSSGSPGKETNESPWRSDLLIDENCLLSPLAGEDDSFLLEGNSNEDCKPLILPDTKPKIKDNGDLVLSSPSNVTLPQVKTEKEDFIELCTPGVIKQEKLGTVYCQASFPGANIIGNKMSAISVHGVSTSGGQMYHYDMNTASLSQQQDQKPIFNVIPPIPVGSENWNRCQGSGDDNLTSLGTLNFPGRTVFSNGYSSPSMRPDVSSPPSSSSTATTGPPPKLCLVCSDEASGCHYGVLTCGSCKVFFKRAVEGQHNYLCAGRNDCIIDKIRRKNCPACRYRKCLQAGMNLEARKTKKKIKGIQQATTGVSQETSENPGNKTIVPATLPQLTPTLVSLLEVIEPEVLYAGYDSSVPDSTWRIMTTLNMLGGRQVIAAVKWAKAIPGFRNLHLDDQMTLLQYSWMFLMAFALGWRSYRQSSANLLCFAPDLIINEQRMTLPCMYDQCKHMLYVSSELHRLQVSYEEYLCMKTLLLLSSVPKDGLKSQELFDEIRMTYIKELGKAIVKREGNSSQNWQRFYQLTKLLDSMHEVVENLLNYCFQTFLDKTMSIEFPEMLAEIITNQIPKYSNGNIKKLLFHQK
Procedure: Glucococorticoid receptor (GR) agonist potency was determined in the human chondrosarcoma cell-line SW1353 stably transfected with an MMTV-luciferase reporter construct. SW1353 naturally expresses human GR, which on binding a glucocorticoid agonist activates glucocorticoid response elements within the MMTV promoter, driving expression of the luciferase gene.
Frozen SW1353 cells were revived in DMEM medium, without sodium pyruvate or phenol red, supplemented with 2 mM L-glutamine, 1 μg/ml insulin, 2 mg/ml lactalbumin hydrosylate and 0.5 μg/ml ascorbate. Cells were seeded at approximately 5000 cells/well (35 μl/well) in 384-well clear bottom, tissue culture treated plates. Steroid dose-response dilutions were prepared in steroid diluent (PBS containing 2.5% (v/v) DMSO and 0.05% (v/v) pluronic detergent) and 5 μl added to each well. The volume was made up to 50 μl per well with steroid diluent. Positive control wells contained 1 μM dexamethasone. Plates were incubated for approximately 18 hours at 37° C. in an air/5% CO2 atmosphere in a humidified incubator before Britelite reagent (10 μl; Perkin-Elmer) was added to each well. Each plate was incubated for 2 minutes in the dark and luminescence quantified using a LJL Biosystems Analyst luminometer. Data for test compounds (expressed as percentage of the dexamethasone positive control) were used to construct dose response curves from which EC50 values were estimated.

[2] = Inhibition of TNF-α release from LPS stimulated isolated human PBMC; type: cell-based; conditions: Homo sapiens, PBMC, read-out: IC50 (nM) for inhibition of TNF-α release
Procedure: The anti-inflammatory activity of the compounds against human leukocytes in vitro was also evaluated by determining inhibition of tumour necrosis factor-α (TNF-α) release from lipopolysaccharide (LPS) stimulated isolated human peripheral mononuclear cells (PBMC).
Peripheral venous blood from healthy, non-medicated donors was collected using ethylenediaminetetraacetic acid (EDTA) as the anti-coagulant. For PBMC preparation, samples of blood were diluted 1:1 with sterile phosphate buffered saline and then separated using ACCUSPIN™ System-Histopaque®-1077 tubes (Sigma-Aldrich, St Louis, Mo.), centrifuged at 400 g for 35 minutes. Buffy coat cells were removed into PBS, centrifuged at 200 g for 10 minutes and re-suspended in PBMC assay buffer (Hanks Balanced Salt Solution, 0.28% [w/v] 4-[2-hydroxyethyl]-1-piperazineethanesulfonic acid [HEPES], 0.01% [w/v] low-endotoxin bovine serum albumin [BSA]. A differential white cell count was performed and PBMC's diluted to 1×10^6 lymphocytes per ml in PBMC assay buffer.
Test compounds were dissolved in DMSO and diluted in PBMC assay buffer (final DMSO concentration 1%) to cover an appropriate concentration range, e.g 0.001 nM to 10000 nM. Samples of test compound solution or vehicle (20 μl) were added into 96-well tissue culture treated plates (Corning) and PBMC (160 μl) added to each well. The assay mixtures were incubated at 37° C. for 1 h in a humidified incubator containing an atmosphere of air supplemented with 5% CO2 before adding LPS (20 μl of 100 ng/ml for PBMC). Plates were returned to the incubator for a further 18 hours, and then centrifuged before recovery of samples of supernatant. TNF-α in the samples was determined using an enzyme-linked immunosorbent assay (ELISA) (Invitrogen kit no CHC-1754; Invitrogen Carlsbad, Calif.) and following the manufacturers instructions. Dose response curves were constructed from which IC50 values were calculated.

Compound | pEC50 [1] | IC50 [2] [nM]
C[C@]12C=CC(=O)C=C1[C@@H](F)C[C@H]1[C@@H]3CC[C@](OC(=O)c4ccc(Cc5ccccc5)cc4)(C(=O)OCC#N)[C@@]3(C)C[C@H](O)[C@@]12F [Example 1, cyanomethyl(6alpha,11beta,17alpha)-17-[(4-benzylbenzoyl)oxy]-6,9-difluoro-11-hydroxy-3-oxoandrosta-1,4-diene-17-carboxylate] | 7.65 | 0.095
C[C@]12C=CC(=O)C=C1[C@@H](F)C[C@H]1[C@@H]3CC[C@](OC(=O)c4ccc(-c5ccccc5)cc4)(C(=O)OCC#N)[C@@]3(C)C[C@H](O)[C@@]12F [Example 2, Cyanomethyl(6alpha,11beta,17alpha)-17-[(biphenyl-4-ylcarbonyl)oxy]-6,9-difluoro-11-hydroxy-3-oxoandrosta-1,4-diene-17-carboxylate] | 6.94 | 0.373
C[C@]12C=CC(=O)C=C1[C@@H](F)C[C@H]1[C@@H]3CC[C@](OC(=O)c4ccc(Sc5ccccc5)cc4)(C(=O)OCC#N)[C@@]3(C)C[C@H](O)[C@@]12F [Example 3, cyanomethyl (6alpha,11beta,17alpha)-6,9-difluoro-11-hydroxy-3-oxo-17-{[4-(phenylthio)benzoyl]oxy}androsta-1,4-diene-17-carboxylate] | 7.30 | 0.143
C[C@]12C=CC(=O)C=C1[C@@H](F)C[C@H]1[C@@H]3CC[C@](OC(=O)c4ccc(Oc5ccccc5)cc4)(C(=O)OCC#N)[C@@]3(C)C[C@H](O)[C@@]12F [Example 4, cyanomethyl (6alpha,11beta,17alpha)-6,9-difluoro-11-hydroxy-3-oxo-17-[(4-phenoxybenzoyl)oxy]androsta-1,4-diene-17-carboxylate] | 7.63 | 0.154
C[C@]12C=CC(=O)C=C1[C@@H](F)C[C@H]1[C@@H]3CC[C@](OC(=O)c4ccc(CSc5ccccc5)cc4)(C(=O)OCC#N)[C@@]3(C)C[C@H](O)[C@@]12F [Example 5, cyanomethyl (6alpha,11beta,17alpha)-6,9-difluoro-11-hydroxy-3-oxo-17-({4-[(phenylthio)methyl]benzoyl}oxy)androsta-1,4-diene-17-carboxylate] | 7.48 | 0.152
C[C@]12C=CC(=O)C=C1[C@@H](F)C[C@H]1[C@@H]3CC[C@](OC(=O)c4ccc(SCc5ccc(O)cc5)cc4)(C(=O)OCC#N)[C@@]3(C)C[C@H](O)[C@@]12F [Example 6, cyanomethyl (6alpha,11beta,17alpha)-6,9-difluoro-11-hydroxy-17-({4-[(4-hydroxybenzyl)thio]benzoyl}oxy)-3-oxoandrosta-1,4-diene-17-carboxylate] | 7.63 | 0.207
C[C@]12C=CC(=O)C=C1CC[C@H]1[C@@H]3CC[C@](OC(=O)c4ccc(-c5ccccc5)cc4)(C(=O)OCC#N)[C@@]3(C)C[C@H](O)[C@@]12F [Example 7, cyanomethyl (11beta,17alpha)-17-[(biphenyl-4-ylcarbonyl)oxy]-9-fluoro-11-hydroxy-3-oxoandrosta-1,4-diene-17-carboxylate] | 7.40 | 0.555
C[C@]12C=CC(=O)C=C1CC[C@H]1[C@@H]3CC[C@](OC(=O)c4ccc(Sc5ccccc5)cc4)(C(=O)OCC#N)[C@@]3(C)C[C@H](O)[C@@]12F [Example 8, cyanomethyl (11beta,17alpha)-9-fluoro-11-hydroxy-3-oxo-17-{[4-(phenylthio)benzoyl]oxy}androsta-1,4-diene-17-carboxylate] | 7.60 | 0.292
CSc1cccc(Sc2ccc(C(=O)O[C@]3(C(=O)OCC#N)CC[C@H]4[C@@H]5CCC6=CC(=O)C=C[C@]6(C)[C@@]5(F)[C@@H](O)C[C@@]43C)cc2)c1 [Example 10, cyanomethyl (11beta,17alpha)-9-fluoro-11-hydroxy-17-[(4-{[3-(methylthio)-phenyl]thio}benzoyl)oxy]-3-oxoandrosta-1,4-diene-17-carboxylate] | 7.21 | 0.826
C[C@]12C=CC(=O)C=C1[C@@H](F)C[C@H]1[C@@H]3CC[C@](OC(=O)c4ccc(CSc5ccc(O)cc5)cc4)(C(=O)OCC#N)[C@@]3(C)C[C@H](O)[C@@]12F [Example 11, cyanomethyl(6alpha,11beta,17alpha)-6,9-difluoro-11-hydroxy-17-[(4-{[(4-hydroxyphenyl)thio]methyl}benzoyl)oxy]-3-oxoandrosta-1,4-diene-17-carboxylate] | 7.52 | 0.735
C[C@]12C=CC(=O)C=C1CC[C@H]1[C@@H]3CC[C@](OC(=O)c4ccc(Oc5ccc(O)c(Cl)c5)cc4)(C(=O)SCC#N)[C@@]3(C)C[C@H](O)[C@@]12F [Example 12, (11beta,17alpha)-17-{[(cyanomethyl)thio]-carbonyl}-9-fluoro-11-hydroxy-3-oxoandrosta-1,4-dien-17-yl 4-(3-chloro-4-hydroxyphenoxy)benzoate] | 6.93 | 0.345
C[C@]12C=CC(=O)C=C1CC[C@H]1[C@@H]3CC[C@](OC(=O)c4ccc(Sc5ccc(O)c(Cl)c5)cc4)(C(=O)SCC#N)[C@@]3(C)C[C@H](O)[C@@]12F [Example 13, (11beta,17alpha)-17-{[(cyanomethyl)thio]carbonyl}-9-fluoro-11-hydroxy-3-oxoandrosta-1,4-dien-17-yl 4-[(3-chloro-4-hydroxyphenyl)thio]benzoate] | 7.09 | 0.799
C[C@]12C=CC(=O)C=C1CC[C@H]1[C@@H]3CC[C@](OC(=O)c4ccc(Oc5ccccc5)cc4)(C(=O)OCC#N)[C@@]3(C)C[C@H](O)[C@@]12F [Example 14, cyanomethyl(11beta,17alpha)-9-fluoro-11-hydroxy-3-oxo-17-[(4-phenoxybenzoyl)oxy]androsta-1,4-diene-17-carboxylate] | 7.62 | 0.234
C[C@]12C=CC(=O)C=C1CC[C@H]1[C@@H]3CC[C@](OC(=O)c4ccc(Sc5cccc(O)c5)cc4)(C(=O)OCC#N)[C@@]3(C)C[C@H](O)[C@@]12F [Example 15, cyanomethyl(11beta,17alpha)-9-fluoro-11-hydroxy-17-({4-[(3-hydroxyphenyl)thio]-benzoyl}oxy)-3-oxoandrosta-1,4-diene-17-carboxylate] | 7.45 | 0.164
C[C@]12C=CC(=O)C=C1CC[C@H]1[C@@H]3CC[C@](OC(=O)c4ccc(Oc5ccc(O)cc5)cc4)(C(=O)OCC#N)[C@@]3(C)C[C@H](O)[C@@]12F [Example 16, cyanomethyl (11beta,17alpha)-9-fluoro-11-hydroxy-17-{[4-(4-hydroxyphenoxy)benzoyl]oxy}-3-oxoandrosta-1,4-diene-17-carboxylate] | 7.62 | 0.067
